Tests used:
Type in all cases: in vivo
[1] = tested on: Housefly [Musca domestica]; assay: Housefly insecticidal test (HF); details: per 25 female houseflies, 48 hours
[2] = tested on: Black Bean Aphid [Aphis fabae (Scop.)]; assay: Black bean aphid test (BBA); details: percent of test compound in sprayed solution, 48 hours
Method: (§1) The compounds in Tables 1 and 2 above were tested for insecticidal activity using the following testing procedures. LC50 values, based on the results of these tests and calculated according to dosage-mortality curves, are expressed in Table 3.
Black Bean Aphid [Aphis fabae (Scop.)]
Nasturtium plants (Tropaeolum sp.) approximately 5 cm tall, were transplanted into sandy loam soil in small cups and infested with 25-50 black bean aphids of mixed ages. Twenty-four hours later they were sprayed to the point of runoff with 50-50 acetone-water solutions of the test compounds. Treated plants were held in the greenhouse and mortality was recorded after 48 hours. Test concentrations ranged from 0.05% downward. The LC-50 value is expressed below in Table 3 under the heading "BBA" in terms of percent of the test compound in the sprayed solution.

[3] = tested on: Tobacco Budworm [Heliothis virescens (Fabricius)]; assay: Tobacco budworm contact test (TBW-C); details: second-instar larvae, 5 days, percent in solution
In short: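 Cotton cotyledons dipped 2–3 s in compound in 50:50 acetone–water, dried, then infested with 5 second-instar larvae and held 5 days at high humidity before scoring mortality.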

[4] = tested on: Tobacco Budworm [Heliothis virescens (Fabricius)] eggs; assay: Tobacco budworm egg test (TBW-E); details: percent in solution
[5] = tested on: Beet Armyworm (Spodoptera exigua); assay: Beet armyworm test (BAW); details: second-instar larvae, five days, percent in solution
In short: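 Sugar beet leaves were dipped 2-3 s in compound diluted in 50-50 acetone-water, dried, then infested with five second-instar larvae in humid dishes. Mortality was scored after five days at concentrations from 0.1% downward. LC50 was taken from dosage-mortality curves as percent compound in solution.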

[6] = tested on: Cabbage Looper [Trichoplusia ni (Hubner)]; assay: Cabbage looper test (CL); details: second-instar larvae, 3-5 days, percent in solution
[7] = tested on: Aster Leafhopper [Macrosteles fascifrens (Stal)]; assay: Aster leafhopper test (LH); details: adults/nymphs, 48 hours, percent in solution
[8] = tested on: Rice water weevil [Lissorhoptrus oryzophilus (Kuschel)]; assay: Rice water weevil test (RWW); details: per weevil, topical, female adults, 48 hours
Method: as §1
Rice water weevil [Lissorhoptrus oryzophilus (Kuschel)]
Test compounds were diluted in acetone. Droplets (1 ul) of test solutions were applied to the ventral abdomens of ten female adult weevils. The treated weevils were placed in containers with wet cotton balls and rice foliage. The containers were covered and kept at a temperature of about 25° C. Mortality was recorded after 48 hours. […] The LC50 values are expressed below in Table 3 under the heading "RWW" in terms of μg of test compound per weevil.

[9] = tested on: Maize weevil [Sitophilus Zeamais (Motschulsky)]; assay: Maize weevil test (MW); details: adult weevils, treated corn seeds, 48 hours, percent in solution
In short: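 Adult weevils (10) were placed with four corn seeds that had been dipped 2-3 s in compound dissolved in 50:50 acetone:water, then dried, and held at about 25° C. Mortality was scored at 48 h. LC50 was taken from dosage-mortality curves and expressed as percent compound in solution, from a 0.01% top concentration.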

| Compound | LC50 HF [1] [µg] | LC50 BBA [2] [%] | LC50 TBW C [3] [%] | LC50 TBW E [4] [%] | LC50 BAW [5] [%] | LC50 CL [6] [%] | LC50 LH [7] [%] | LC50 RWW [8] [µg] | LC50 MW [9] [%] |
| --- | --- | --- | --- | --- | --- | --- | --- | --- | --- |
| CC(C)C(=Nc1ccc(F)c(Cl)c1)OCc1ccc(F)c(Oc2ccccc2)c1 [Compound 82] | 2.5 | 0.00021 | 0.0008 | 0.006 | 0.0025 | 0.00018 | 0.0001 | 0.086 |  |
| CC(C)C(=Nc1ccc(F)c(Cl)c1)OCc1cccc(Cc2ccccc2)c1 [Compound 537] | 20 | > 0.05 |  |  |  | > 0.1 | > 0.05 |  | > 0.01 |
| CC(C)C(=Nc1ccc(F)c(Cl)c1F)OCc1cccc(Oc2ccc(F)cc2)c1 [Compound 352] | 4.6 |  | 0.0004 | > 0.1 | > 0.1 | 0.000065 | 0.0004 | > 2.5 | 0.0075 |
| CC(C)C(=Nc1ccc2c(c1)OCO2)OCc1cccc(Oc2ccccc2)c1 [Compound 180] | 2 |  | 0.003 | 0.03 | 0.005 | 0.0004 | 0.0015 | > 2.5 | 0.008 |
| CC(C)C(=Nc1ccc(C(F)(F)F)cc1)OCc1cccc(Cc2ccccc2)c1 [Compound 535] | 41 | > 0.05 |  |  |  | > 0.1 | > 0.05 |  | > 0.01 |
| CC(C)C(=Nc1ccc(OC(F)(F)F)cc1)OCc1ccc(F)c(Oc2ccc(Cl)cc2)c1 [Compound 323] | > 100 |  | 0.00065 | 0.045 | 0.0025 | 0.0006 | 0.05 | 0.16 | 0.0075 |
| CC(C)C(=Nc1ccc(F)c(Cl)c1)OCc1cccc(Oc2ccccc2)c1 [Compound 81] | 4 |  | 0.0009 | 0.007 | 0.003 | 0.0006 | 0.0003 | > 0.5 | 0.005 |
| CC(C)C(=Nc1ccc(F)c(Cl)c1)OCc1ccc(F)c(Oc2ccc(Cl)cc2)c1 [Compound 267] | 8.4 |  | 0.0003 | 0.015 | 0.0012 | 0.00008 | 0.002 | 0.11 | 0.0027 |
| CC(C)C(=Nc1ccc(F)c(Cl)c1)OCc1ccc(F)c(Oc2ccc(F)cc2)c1 [Compound 216] | 2 |  | 0.00018 | 0.005 | 0.0007 | 0.000007 | 0.00025 | 0.067 | 0.0017 |
| CC(C)C(=Nc1ccc(F)c(F)c1F)OCc1ccc(F)c(Oc2ccc(F)cc2)c1 [Compound 349] | 4.9 | > 0.05 | 0.0004 | > 0.1 | > 0.1 | 0.00007 |  | > 2.5 | > 0.01 |
| CC(C)C(=Nc1ccc(F)c(Cl)c1)OCc1cccc(Oc2ccc(F)cc2)c1 [Compound 89] | 5 |  | 0.0005 | 0.04 | 0.009 | 0.00003 | 0.001 | > 2.5 | 0.005 |
| CC(C)C(=Nc1ccc(F)c(F)c1)OCc1ccc(F)c(Oc2ccc(F)cc2)c1 [Compound 278] | 3 |  | 0.00026 | 0.008 | 0.0012 | 0.00002 | 0.0003 | 0.085 | 0.0063 |
| CC(C)C(=Nc1ccc(F)c(Br)c1)OCc1ccc(F)c(Oc2ccc(F)cc2)c1 [Compound 273] | 7 |  | 0.00025 | 0.015 | 0.0017 | 0.000018 | 0.0003 | > 2.5 | 0.004 |
| CC(C)C(=Nc1ccc(F)c(Cl)c1)OCc1cccc(Oc2ccc(Cl)cc2)c1 [Compound 239] | 14 |  | 0.0005 | 0.025 | 0.005 | 0.00015 | 0.002 | > 2.5 | 0.006 |
| CC(C)C(=Nc1ccc(OC(F)(F)F)cc1)OCc1ccc(F)c(Oc2ccc(F)cc2)c1 [Compound 286] | 34 |  | 0.00017 | 0.005 | 0.0004 | 0.000024 | 0.0006 | 0.09 | 0.0039 |
| C=CCOc1cccc(COC(=Nc2ccc(F)c(Cl)c2)C(C)C)c1 [Compound 479] | 66 | > 0.05 |  | > 0.1 |  | 0.013 | > 0.05 |  | > 0.01 |
| C=CCOc1cccc(COC(=Nc2cccc(C(F)(F)F)c2)C(C)C)c1 [Compound 480] | > 100 | > 0.05 |  | > 0.1 |  | 0.01 |  |  |  |
| CC(C)C(=Nc1ccc(Cl)cc1)OCc1cccc(Oc2ccc(Cl)cc2)c1 [Compound 269] | 25 |  | 0.001 | 0.04 | 0.0024 | 0.0003 | 0.003 | > 2.5 | > 0.01 |
| CC(C)C(=Nc1ccc(F)c(C(F)(F)F)c1)OCc1ccc(F)c(Oc2ccc(F)cc2)c1 [Compound 277] | 4 |  | 0.0005 | 0.013 | 0.005 | 0.00001 | 0.0003 | 0.065 | > 0.01 |

Reference: patent US5089623A, “Certain imidate insecticides” (Imperial Chemical Industries Plc, priority 1990, dated 1992)
